Paper PMC11477482 (Molecules, 2024)
“Also recorded” adds a separate entry of the source.

What was measured:
[1] = tested on: HaCaT cells; assay: Cellular metabolic activity, resazurin reduction assay, HaCaT; format: cell-based, human; conditions: HaCaT keratinocytes, concentrations examined (abstract: up to 500 µM)
Protocol: (§1) The human keratinocytes (HaCaT, CLS 300493, Eppelheim, Germany) cell line was cultured with Dulbecco’s Modified Eagle’s Medium (DMEM) (Sigma-Aldrich, St. Louis, MO, USA), supplemented with 10% (v/v) of heat-inactivated fetal bovine serum (FBS), 1% (v/v) antibiotic solution (from a 10,000 U/mL penicillin and 10,000 μg/mL streptomycin stock) (Gibco, Carlsbad, CA, USA), 3.7 g/L sodium bicarbonate, and 1 mM sodium pyruvate (Sigma-Aldrich, St. Louis, MO, USA). The cell culture of keratinocytes was detached with EDTA solution 1X (Sigma-Aldrich, St. Louis, MO, USA) when the cells reached 70–80% confluence in cell culture flasks. The mouse macrophage cell line (RAW 264.7, ATCC TIB-71, Manassas, VA, USA) was cultured in DMEM supplemented with 10% (v/v) non-inactivated FBS, 1% (v/v) antibiotic solution, 1.5 g/L sodium bicarbonate, and 1 mM sodium pyruvate. Macrophages were mechanically detached with a cell scraper and subcultured in (1:10) proportion of cellular suspension to a final volume of DMEM. […] The metabolic activity of human epidermal keratinocytes (HaCaT), murine macrophages (RAW264.7), and human monocytes (THP-1) was assessed using a resazurin reduction assay. […] The absorbance was read at 570 and 620 nm using a SpectraMax Plus 384 absorbance microplate spectrophotometer (Molecular Devices, San Jose, CA, USA). […]

[2] = Stability at different temperatures, pH 5 (UV-vis absorbance); format: physicochemical; conditions: for thermostability: pH 5, 4, 25, 40 and 60 °C
Protocol: Each compound solution (100 µM) buffered at pH 5 was prepared in triplicate. The other three samples were stored at 4 °C, 25 °C, 40 °C, and 60 °C, protected from light. Aliquots of 3.00 mL were transferred to quartz cuvettes at specific time points, and their absorbance was measured by UV–vis spectrophotometry. The blank of each pH corresponded to 3.00 mL of respective buffer. Stability was determined in terms of the change in the maximum peak absorbance.

[3] = tested on: THP-1 cells (CD54 and CD86 expression); assay: Skin sensitization potential, h-CLAT (CD54 and CD86 expression); format: cell-based, human; conditions: THP-1, h-CLAT
Description: The cell culture of keratinocytes was detached with EDTA solution 1X (Sigma-Aldrich, St. Louis, MO, USA) when the cells reached 70–80% confluence in cell culture flasks. […] Macrophages were mechanically detached with a cell scraper and subcultured in (1:10) proportion of cellular suspension to a final volume of DMEM. […] Cells were subcultured every 2 or 3 days and maintained in culture for 2–3 months, according to ATCC® instructions.
Following OECD guidelines, researchers utilized the THP-1 human monocyte cell line as a substitute for dendritic cells (DCs) to assess skin sensitization potential. […] The cell pellet was further resuspended in 100 µL of PBS and analyzed by flow cytometry using a BD Accuri™ C6 cytometer (San Jose, CA, USA).
CD86 and CD54 levels were analyzed by flow cytometry using the acquisition channels FL1 and FL4. Mitochondrial O2^− production was measured by flow cytometry using the acquisition channel FL2. The relative fluorescence intensity (RFI) of CD86 and CD54 (THP-1 maturation assay) and MitoSOX (mitochondrial antioxidant activity) in the control and chemical-treated cells, based on the geometric mean fluorescence intensity (MFI), was calculated according to the following equation: RFI=MFI of chemical treated cells−MFI of chemical treated unstained cells/MFI of control treated cells−MFI of control unstained cells ×100

[4] = tested on: THP-1 cells; assay: Cellular metabolic activity, resazurin reduction assay, THP-1; format: cell-based, human; conditions: THP-1 monocytes, concentrations examined (abstract: up to 500 µM)
Protocol: as §1

[5] = tested on: RAW264.7 cells; assay: Cellular metabolic activity, resazurin reduction assay, RAW264.7; format: cell-based, mouse; conditions: RAW264.7 macrophages, concentrations examined (abstract: up to 500 µM)
Protocol: as §1

[6] = parameters: method as in earlier work; conditions: ref (2) of the supplement; read-out: DPPH scavenging EC50 (literature value); cited from earlier work
[7] = Cellular metabolic activity, resazurin reduction assay, HaCaT; format: cell-based, human; conditions: human, HaCaT keratinocytes; HaCaT, resazurin, 24 h, concentrations greater than or equal to 500 µM; read-out: cell viability
Protocol: as §1

[8] = tested on: B16 cells; conditions: 4 mM, compared to 3-O-ethyl ascorbic acid, ref [15],[16],[17]; cited from earlier work
[9] = tested on: human fibroblasts; conditions: ref [15],[16],[17]; cited from earlier work

| absorbance normalized to t = 0 ([2]; pH 5, 60 °C, in 2 h) | absorbance normalized to t = 0 ([2]; pH 5, storage at 25 °C) | SMILES | effect on cell viability / metabolic activity [1] | thermostability [2] | skin sensitization potential [3] | effect on cell viability / metabolic activity [4] | effect on cell viability / metabolic activity [5] | EC50 [6] | viability at 24 h [7] | lightening effect [8] | collagen production [9] |
| --- | --- | --- | --- | --- | --- | --- | --- | --- | --- | --- | --- |
|  |  | O=C1OC(C(COS(=O)(=O)O)OS(=O)(=O)O)C(OS(=O)(=O)O)=C1OC1OC(COS(=O)(=O)O)C(OS(=O)(=O)O)C(OS(=O)(=O)O)C1OS(=O)(=O)O [AAGS, 2-O-α-D-glucopyranosyl-L-ascorbic acid persulfate] | did not adversely impact cell viability; also recorded: did not affect the metabolic activity | highest level of stability among the compounds | non-sensitizing profile; also recorded: AA, AAG, and AAGS with non-sensitizer profile | did not adversely impact cell viability; also recorded: did not affect the metabolic activity | did not adversely impact cell viability; also recorded: did not affect the metabolic activity |  |  |  |  |
| < 30% | < 50% | O=C1O[C@H]([C@@H](O)CO)C(O)=C1O [AA, Ascorbic acid] |  | decomposed with time at all the temperatures tested |  |  |  | 16.3 ± 0.569 µM |  |  |  |
|  |  | O=C1O[C@H]([C@@H](O)CO)C(O)=C1O[C@H]1O[C@H](CO)[C@@H](O)[C@H](O)[C@H]1O [AAG, 2-O-α-D-glucopyranosyl-L-ascorbic acid] |  |  | AA, AAG, and AAGS with non-sensitizer profile |  |  |  | > 70% | better lightening effect | > 12 µg/well |
